# Patent US9051270B2, “Pyridone amides as modulators of sodium channels” (Vertex Pharmaceuticals Incorporated, priority 2013, dated 2015)
# Biological target: human Nav1.8 (Homo sapiens (Human), UniProt Q9Y5Y9)
# Experiment: E-VIPR optical membrane potential assay with electrical stimulation
# Type: cell-based
# Details: HEK cells expressing human Nav1.8
# Text: Sodium channels are voltage-dependent proteins that can be activated by inducing membrane voltage changes by applying electric fields. […] The instrument comprises a microtiter plate handler, an optical system for exciting the coumarin dye while simultaneously recording the coumarin and oxonol emissions, a waveform generator, a current- or voltage-controlled amplifier, and a device for inserting electrodes in well. Under integrated computer control, this instrument passes user-programmed electrical stimulus protocols to cells within the wells of the microtiter plate.
# 24 hours before the assay on E-VIPR, HEK cells expressing human Nav1.8 were seeded in 384-well poly-lysine coated plates at 15,000-20,000 cells per well. […] Cells were grown in vented cap flasks, in 90% humidity and 5% CO2.
# To make the solution added volume of 10% Pluronic F127 stock equal to volumes of CC2-DMPE+DiSBAC6(3). The order of preparation was first mixing Pluronic and CC2-DMPE, then adding DiSBAC6(3) while vortexing, then adding Bath1+β-Cyclodextrin.
# 1) Pre-spotted compounds (in neat DMSO) into compound plates. […] Final compound plate volume was 80 μL (80-fold intermediate dilution from 1 μL DMSO spot; 160-fold final dilution after transfer to cell plate).
# 2) Prepared Hexyl Dye Solution.
# 3) Prepared cell plates. On the day of the assay, medium was aspirated and cells were washed three times with 100 μL of Bath1 Solution, maintaining 25 μL residual volume in each well.
# 4) Dispensed 25 μL per well of Hexyl Dye Solution into cell plates. Incubated for 20-35 minutes at room temp or ambient conditions.
# 5) Dispensed 80 μL per well of Bath1 into compound plates. Acid Yellow-17 (1 mM) was added and Potassium Chloride was altered from 4.5 to 20 mM depending on the NaV subtype and assay sensitivity.
# 6) Washed cell plates three times with 100 μL per well of Bath1, leaving 25 μL of residual volume. Then transferred 25 uL per well from Compound Plates to Cell Plates. Incubated for 20-35 minutes at room temp/ambient condition.
# 7) Read Plate on E-VIPR. […] A pre-stimulus recording was performed for 0.5 seconds to obtain the un-stimulated intensities baseline. The stimulatory waveform was followed by 0.5 seconds of post-stimulation recording to examine the relaxation to the resting state.
# Data was analyzed and reported as normalized ratios of emission intensities measured in the 460 nm and 580 nm channels. The response as a function of time was reported as the ratios obtained using the following formula: […]
# The data was further reduced by calculating the initial (Ri) and final (Rf) ratios. These were the average ratio values during part or all of the pre-stimulation period, and during sample points during the stimulation period. The response to the stimulus R=Rf/Ri was then calculated and reported as a function of time.
# Control responses were obtained by performing assays in the presence of a compound with the desired properties (positive control), such as tetracaine, and in the absence of pharmacological agents (negative control). Responses to the negative (N) and positive (P) controls were calculated as above. The compound antagonist activity A is defined as:
# [formula] where R is the ratio response of the test compound
# Chain of human Nav1.8 (Q9Y5Y9 whole entry): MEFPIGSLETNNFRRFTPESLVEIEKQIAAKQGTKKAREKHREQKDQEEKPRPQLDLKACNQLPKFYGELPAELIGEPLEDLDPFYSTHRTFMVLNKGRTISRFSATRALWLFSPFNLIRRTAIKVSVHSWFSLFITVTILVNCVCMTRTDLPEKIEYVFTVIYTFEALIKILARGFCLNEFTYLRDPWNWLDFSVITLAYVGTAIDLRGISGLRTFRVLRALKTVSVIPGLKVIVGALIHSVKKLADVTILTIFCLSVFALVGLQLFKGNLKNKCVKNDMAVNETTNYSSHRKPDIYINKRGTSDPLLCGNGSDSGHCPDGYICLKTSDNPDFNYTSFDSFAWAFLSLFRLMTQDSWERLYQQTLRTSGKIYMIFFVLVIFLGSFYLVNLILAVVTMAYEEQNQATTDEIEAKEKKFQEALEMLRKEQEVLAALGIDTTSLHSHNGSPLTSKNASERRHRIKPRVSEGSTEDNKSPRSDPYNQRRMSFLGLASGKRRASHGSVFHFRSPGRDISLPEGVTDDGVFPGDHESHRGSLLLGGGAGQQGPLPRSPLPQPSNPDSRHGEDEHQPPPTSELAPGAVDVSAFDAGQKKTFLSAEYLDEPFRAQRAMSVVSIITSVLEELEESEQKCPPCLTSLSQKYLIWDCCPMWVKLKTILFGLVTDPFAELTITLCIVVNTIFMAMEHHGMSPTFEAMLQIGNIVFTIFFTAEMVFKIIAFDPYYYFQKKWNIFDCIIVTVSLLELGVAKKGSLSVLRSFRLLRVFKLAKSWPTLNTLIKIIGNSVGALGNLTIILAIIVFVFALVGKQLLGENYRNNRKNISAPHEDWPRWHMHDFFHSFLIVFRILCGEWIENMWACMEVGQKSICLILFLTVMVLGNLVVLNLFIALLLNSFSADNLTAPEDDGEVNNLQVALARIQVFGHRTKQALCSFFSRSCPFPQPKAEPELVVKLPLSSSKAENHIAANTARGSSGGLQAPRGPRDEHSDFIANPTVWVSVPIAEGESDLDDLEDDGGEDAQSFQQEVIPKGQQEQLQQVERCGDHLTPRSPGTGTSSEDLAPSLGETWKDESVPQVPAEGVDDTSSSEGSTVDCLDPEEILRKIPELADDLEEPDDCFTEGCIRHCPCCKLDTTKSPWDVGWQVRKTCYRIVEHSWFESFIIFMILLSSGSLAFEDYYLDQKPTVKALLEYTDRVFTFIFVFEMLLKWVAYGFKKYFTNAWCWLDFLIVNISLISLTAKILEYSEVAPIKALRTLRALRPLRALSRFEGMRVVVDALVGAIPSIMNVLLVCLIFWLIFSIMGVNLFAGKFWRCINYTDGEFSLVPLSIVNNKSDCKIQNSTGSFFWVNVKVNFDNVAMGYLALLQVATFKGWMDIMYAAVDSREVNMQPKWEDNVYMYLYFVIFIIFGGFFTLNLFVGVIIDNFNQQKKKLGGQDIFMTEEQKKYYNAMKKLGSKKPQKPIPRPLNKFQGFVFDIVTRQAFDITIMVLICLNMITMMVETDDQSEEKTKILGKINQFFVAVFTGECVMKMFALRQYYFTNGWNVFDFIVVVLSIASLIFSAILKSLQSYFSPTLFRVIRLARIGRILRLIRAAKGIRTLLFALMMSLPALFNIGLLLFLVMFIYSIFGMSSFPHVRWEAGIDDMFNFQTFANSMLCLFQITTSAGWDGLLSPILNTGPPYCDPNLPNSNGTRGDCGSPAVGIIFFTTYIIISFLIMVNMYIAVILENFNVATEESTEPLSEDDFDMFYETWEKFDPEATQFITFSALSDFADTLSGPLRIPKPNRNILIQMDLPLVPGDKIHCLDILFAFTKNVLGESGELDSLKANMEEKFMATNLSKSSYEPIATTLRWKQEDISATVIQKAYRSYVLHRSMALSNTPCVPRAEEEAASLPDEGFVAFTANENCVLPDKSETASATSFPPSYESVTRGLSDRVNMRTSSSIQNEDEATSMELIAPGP
row,IC50 [nM],Structure (SMILES)
1,135,"COc1cc(C)ccc1Oc1ccc(C(F)(F)F)cc1C(=O)Nc1cc[nH]c(=O)c1 [Compound 47, 2-(2-methoxy-4-methylphenoxy)-N-(2-oxo-1,2-dihydropyridin-4-yl)-5-(trifluoromethyl)benzamide]"
2,2700,"COc1cccc(F)c1Oc1ccc(C(F)(F)F)cc1C(=O)Nc1cc[nH]c(=O)c1 [Compound 48, 2-(2-fluoro-6-methoxyphenoxy)-N-(2-oxo-1,2-dihydropyridin-4-yl)-5-(trifluoromethyl)benzamide]"
3,24,"COc1ccc(Oc2ccc(C(F)(F)F)cc2C(=O)Nc2cc[nH]c(=O)c2)c(Cl)c1 [Compound 49, 2-(2-chloro-4-methoxyphenoxy)-N-(2-oxo-1,2-dihydropyridin-4-yl)-5-(trifluoromethyl)benzamide]"
4,19,"Cc1cc(Cl)ccc1Oc1ccc(C(F)(F)F)cc1C(=O)Nc1cc[nH]c(=O)c1 [Compound 50, 2-(4-chloro-2-methylphenoxy)-N-(2-oxo-1,2-dihydropyridin-4-yl)-5-(trifluoromethyl)benzamide]"
5,87,"O=C(Nc1cc[nH]c(=O)c1)c1cc(C(F)(F)F)ccc1Oc1ccc(Cl)cc1F [Compound 51, 2-(4-chloro-2-fluorophenoxy)-N-(2-oxo-1,2-dihydropyridin-4-yl)-5-(trifluoromethyl)benzamide]"
6,94,"COc1ccc(F)cc1Oc1ccc(C(F)(F)F)cc1C(=O)Nc1cc[nH]c(=O)c1 [Compound 52, 2-(5-fluoro-2-methoxyphenoxy)-N-(2-oxo-1,2-dihydropyridin-4-yl)-5-(trifluoromethyl)benzamide]"
7,47,"CCCOc1ccc(Oc2ccc(C(F)(F)F)cc2C(=O)Nc2cc[nH]c(=O)c2)cc1 [Compound 53, N-(2-oxo-1,2-dihydropyridin-4-yl)-2-(4-propoxyphenoxy)-5-(trifluoromethyl)benzamide]"
8,30,"COc1c(F)cccc1Oc1ccc(C(F)(F)F)cc1C(=O)Nc1cc[nH]c(=O)c1 [Compound 54, 2-(3-fluoro-2-methoxyphenoxy)-N-(2-oxo-1,2-dihydropyridin-4-yl)-5-(trifluoromethyl)benzamide]"
9,70,"COc1ccc(Oc2ccc(C(F)(F)F)cc2C(=O)Nc2cc[nH]c(=O)c2)c(F)c1 [Compound 55, 2-(2-fluoro-4-methoxyphenoxy)-N-(2-oxo-1,2-dihydropyridin-4-yl)-5-(trifluoromethyl)benzamide]"
10,69,"Cc1ccc(F)cc1Oc1ccc(C(F)(F)F)cc1C(=O)Nc1cc[nH]c(=O)c1 [Compound 56, 2-(5-fluoro-2-methylphenoxy)-N-(2-oxo-1,2-dihydropyridin-4-yl)-5-(trifluoromethyl)benzamide]"
11,6900,"COc1cc(F)cc(Oc2ccc(C(F)(F)F)cc2C(=O)Nc2cc[nH]c(=O)c2)c1 [Compound 57, 2-(3-fluoro-5-methoxyphenoxy)-N-(2-oxo-1,2-dihydropyridin-4-yl)-5-(trifluoromethyl)benzamide]"
12,54,"O=C(Nc1cc[nH]c(=O)c1)c1cc(C(F)(F)F)ccc1Oc1ccc(Cl)cc1 [Compound 58, 2-(4-chlorophenoxy)-N-(2-oxo-1,2-dihydropyridin-4-yl)-5-(trifluoromethyl)benzamide]"
13,32,"COc1ccc(Oc2ccc(C(F)(F)F)cc2C(=O)Nc2cc[nH]c(=O)c2)cc1F [Compound 59, 2-(3-fluoro-4-methoxyphenoxy)-N-(2-oxo-1,2-dihydropyridin-4-yl)-5-(trifluoromethyl)benzamide]"
14,126,"Cc1cc(F)ccc1Oc1ccc(C(F)(F)F)cc1C(=O)Nc1cc(Cl)[nH]c(=O)c1 [Compound 60, N-(6-chloro-2-oxo-1,2-dihydropyridin-4-yl)-2-(4-fluoro-2-methylphenoxy)-5-(trifluoromethyl)benzamide]"
15,113,"Cc1cc(NC(=O)c2cc(C(F)(F)F)ccc2Oc2ccc(F)cc2C)cc(=O)[nH]1 [Compound 61, 2-(4-fluoro-2-methylphenoxy)-N-(6-methyl-2-oxo-1,2-dihydropyridin-4-yl)-5-(trifluoromethyl)benzamide]"
16,34,"CCCOc1ccccc1Oc1ccc(C(F)(F)F)cc1C(=O)Nc1cc[nH]c(=O)c1 [Compound 62, N-(2-oxo-1,2-dihydropyridin-4-yl)-2-(2-propoxyphenoxy)-5-(trifluoromethyl)benzamide]"

row,IC50 [nM],Structure (SMILES)
1,18,"COc1ccc(Oc2ccc(C(F)(F)F)cc2C(=O)Nc2cc[nH]c(=O)c2)c(C)c1 [Compound 63, 2-(4-methoxy-2-methylphenoxy)-N-(2-oxo-1,2-dihydropyridin-4-yl)-5-(trifluoromethyl)benzamide]"
2,108,"CC(C)Oc1ccccc1Oc1ccc(C(F)(F)F)cc1C(=O)Nc1cc[nH]c(=O)c1 [Compound 64, 2-(2-isopropoxyphenoxy)-N-(2-oxo-1,2-dihydropyridin-4-yl)-5-(trifluoromethyl)benzamide]"
3,107,"O=C(Nc1cc[nH]c(=O)c1)c1cc(C(F)(F)F)ccc1Oc1ccccc1Cl [Compound 65, 2-(2-chlorophenoxy)-N-(2-oxo-1,2-dihydropyridin-4-yl)-5-(trifluoromethyl)benzamide]"
4,69,"O=C(Nc1cc[nH]c(=O)c1)c1cc(Cl)ccc1Oc1ccc(F)cc1 [Compound 67, 5-chloro-2-(4-fluorophenoxy)-N-(2-oxo-1,2-dihydropyridin-4-yl)-benzamide]"
5,112,"O=C(Nc1cc[nH]c(=O)c1)c1cc(Cl)ccc1Oc1ccc(F)cc1F [Compound 69, 5-chloro-2-(2,4-difluorophenoxy)-N-(2-oxo-1,2-dihydropyridin-4-yl)benzamide]"
6,13,"COc1cc(F)ccc1Oc1ccc(Cl)cc1C(=O)Nc1cc[nH]c(=O)c1 [Compound 70, 5-chloro-2-(4-fluoro-2-methoxyphenoxy)-N-(2-oxo-1,2-dihydropyridin-4-yl)benzamide]"
7,92,"COc1ccc(Oc2ccc(Cl)cc2C(=O)Nc2cc[nH]c(=O)c2)cc1F [Compound 71, 5-chloro-2-(3-fluoro-4-methoxyphenoxy)-N-(2-oxo-1,2-dihydropyridin-4-yl)benzamide]"
8,35,"O=C(Nc1cc[nH]c(=O)c1)c1cc(C(F)(F)F)ccc1Oc1ccc(OC(F)F)cc1 [Compound 73, 2-(4-(difluoromethoxy)phenoxy)-N-(2-oxo-1,2-dihydropyridin-4-yl)-5-(trifluoromethyl)benzamide]"
9,5180,"O=C(Nc1cc[nH]c(=O)c1)c1cc(C(F)(F)F)ccc1Oc1ccc(C(F)(F)F)cc1 [Compound 74, N-(2-oxo-1,2-dihydropyridin-4-yl)-5-(trifluoromethyl)-2-(4-(trifluoromethyl)phenoxy)benzamide]"
10,29,"O=C(Nc1cc[nH]c(=O)c1)c1ccc(C(F)(F)F)cc1Oc1ccc(F)cc1Cl [Compound 77, 2-(2-chloro-4-fluorophenoxy)-N-(2-oxo-1,2-dihydropyridin-4-yl)-4-(trifluoromethyl)benzamide]"
11,31,"O=C(Nc1cc[nH]c(=O)c1)c1ccc(C(F)(F)F)cc1Oc1ccc(Cl)cc1 [Compound 78, 2-(4-chlorophenoxy)-N-(2-oxo-1,2-dihydropyridin-4-yl)-4-(trifluoromethyl)benzamide]"
12,105,"O=C(Nc1cc[nH]c(=O)c1)c1ccc(C(F)(F)F)cc1Oc1ccccc1OC(F)(F)F [Compound 80, N-(2-oxo-1,2-dihydropyridin-4-yl)-2-(2-(trifluoromethoxy)phenoxy)-4-(trifluoromethyl)benzamide]"
13,26,"COc1ccc(Oc2cc(C(F)(F)F)ccc2C(=O)Nc2cc[nH]c(=O)c2)cc1F [Compound 81, 2-(3-fluoro-4-methoxyphenoxy)-N-(2-oxo-1,2-dihydropyridin-4-yl)-4-(trifluoromethyl)benzamide]"
14,46,"O=C(Nc1cc[nH]c(=O)c1)c1ccc(C(F)(F)F)cc1Oc1ccccc1OC(F)F [Compound 83, 2-(2-(difluoromethoxy)phenoxy)-N-(2-oxo-1,2-dihydropyridin-4-yl)-4-(trifluoromethyl)benzamide]"
15,46,"COc1ccc(Oc2cc(C(F)(F)F)ccc2C(=O)Nc2cc[nH]c(=O)c2)c(F)c1 [Compound 84, 2-(2-fluoro-4-methoxyphenoxy)-N-(2-oxo-1,2-dihydropyridin-4-yl)-4-(trifluoromethyl)benzamide]"
